According to patent US20260209193A1, “NOVEL INHIBITORS OF DNA DAMAGE RESPONSES FOR CANCER THERAPY” (The Regents of the University of California, priority 2022, published 2026):

molecular target: T1, PARP1 (Homo sapiens, UniProt P09874); test: PARP1 trapping, chromatin fractionation (chromatin-bound fraction); format: cell-based; settings: PC3 cells
T1 construct: endogenous in cells; host or cells: PC3
Excerpt: The trapped PARP1 forms a toxic lesion and stalls the progress of replication forks. The replication fork collapses in BRCA1/2-deficient cancer cells, and then results in cell death. […] Six cancer cell lines were used in this assay, including two breast cancer cell lines, BRCA1-mutunt SUM149PT-BRCA1mut and SUM149PT-BRCA1rev where deleterious BRCA1 mutation is reverted to form a functional BRCA1, two ovarian cancer cell lines, BRCA1-null UWB1.289 and UWB1.289+BRCA1, a stable cell line in which wild-type BRCA1 function has been restored, and two prostate cancer cell lines, enzalutamide resistant C4-2B/MR which is homologous recombination (HR)-deficient due to Rad51 mutation, and enzalutamide insensitive PC3 which is HR-proficient.

T1 sequence (P09874 whole entry, species assumed): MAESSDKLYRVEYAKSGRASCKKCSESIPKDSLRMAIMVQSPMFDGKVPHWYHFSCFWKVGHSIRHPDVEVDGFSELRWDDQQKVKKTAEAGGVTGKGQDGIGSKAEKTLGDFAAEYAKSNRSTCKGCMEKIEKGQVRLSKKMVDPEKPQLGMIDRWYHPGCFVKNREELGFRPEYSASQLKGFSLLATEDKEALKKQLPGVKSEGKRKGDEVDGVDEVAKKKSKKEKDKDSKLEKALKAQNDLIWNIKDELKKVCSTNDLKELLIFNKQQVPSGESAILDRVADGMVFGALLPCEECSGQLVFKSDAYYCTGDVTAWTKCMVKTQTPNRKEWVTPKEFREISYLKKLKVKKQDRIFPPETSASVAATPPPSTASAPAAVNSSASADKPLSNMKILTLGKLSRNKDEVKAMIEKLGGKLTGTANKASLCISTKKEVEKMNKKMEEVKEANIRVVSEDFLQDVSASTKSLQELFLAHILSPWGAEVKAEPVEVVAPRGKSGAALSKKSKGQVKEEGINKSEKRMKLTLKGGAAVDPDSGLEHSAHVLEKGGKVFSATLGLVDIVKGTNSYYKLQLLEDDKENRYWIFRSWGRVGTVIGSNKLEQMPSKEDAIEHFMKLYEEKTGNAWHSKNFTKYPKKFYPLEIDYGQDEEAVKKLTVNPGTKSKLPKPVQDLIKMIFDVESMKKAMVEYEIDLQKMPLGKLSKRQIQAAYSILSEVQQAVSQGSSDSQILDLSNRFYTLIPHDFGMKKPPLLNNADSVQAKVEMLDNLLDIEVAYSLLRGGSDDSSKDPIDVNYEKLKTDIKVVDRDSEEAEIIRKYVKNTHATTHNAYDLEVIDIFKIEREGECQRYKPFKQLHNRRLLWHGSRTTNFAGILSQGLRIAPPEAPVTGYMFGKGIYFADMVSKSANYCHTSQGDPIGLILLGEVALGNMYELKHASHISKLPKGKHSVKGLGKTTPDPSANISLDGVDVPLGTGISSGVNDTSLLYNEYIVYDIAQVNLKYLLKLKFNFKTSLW

Row | SMILES | PARP1-trapping potency relative to JC099 (PARP1 in the chromatin-bound fraction)
1 | CCN(CC)CCNc1ccc(C(=O)NC2C/C(=C\c3ccc(F)c(F)c3)C(=O)/C(=C/c3ccc(F)c(F)c3)C2)cc1 (centres unmarked) [JCS070, N-(3,5-Bis((E)-3,4-difluorobenzylidene)-4-oxocyclohexyl)-4-((2-(diethylamino)ethyl)amino)benz-amide] | higher potency in PARP1-trapping
2 | CCN(CC)CCOc1ccc(C(=O)NC2CC(Cc3ccc(F)c(F)c3)C(=O)C(Cc3ccc(F)c(F)c3)C2)cc1 (centres unmarked) [JCS074, N-(3,5-bis(3,4-difluorobenzyl)-4-oxocyclohexyl)-4-(2-(diethylamino)ethoxy)benzamide] | increased the accumulation of PARP1 in the chromatin-bound fraction than JC099
3 | O=C1/C(=C/c2ccc(F)c(F)c2)CC(NC(=O)c2ccc(OCCN3CCC(C(F)(F)F)CC3)cc2)C/C1=C\c1ccc(F)c(F)c1 (centres unmarked) [JCS077, N-(3,5-bis((E)-3,4-difluorobenzylidene)-4-oxocyclohexyl)-4-(2-(4-(trifluoromethyl)piperidin-1-yl)ethoxy)benzamide] | increased the accumulation of PARP1 in the chromatin-bound fraction than JC099
4 | CCc1ccc2c(c1)CCC1(CCN(CCOc3ccc(C(=O)NC4C/C(=C\c5ccc(F)c(F)c5)C(=O)/C(=C/c5ccc(F)c(F)c5)C4)cc3)CC1)O2 (centres unmarked) [JCS078, N-(3,5-bis((E)-3,4-difluorobenzylidene)-4-oxocyclohexyl)-4-(2-(6-ethylspiro[chromane-2,4′-piperidin]-1′-yl)ethoxy)benzamide] | increased the accumulation of PARP1 in the chromatin-bound fraction than JC099
5 | Cc1nn(C)c2ncc(C(=O)NC3C/C(=C\c4ccc(F)c(F)c4)C(=O)/C(=C/c4ccc(F)c(F)c4)C3)c(Cl)c12 (centres unmarked) [JCS085] | higher potency in PARP1-trapping
6 | O=C1/C(=C/c2ccc(F)c(F)c2)CC(NC(=O)c2ccc(NCCN3CCN(Cc4ccccc4)CC3)cc2)C/C1=C\c1ccc(F)c(F)c1 (centres unmarked) [JCS087, 4-((2-(4-benzylpiperazin-1-yl)ethyl)amino)-N-(3,5-bis((E)-3,4-difluorobenzylidene)-4-oxocyclohexyl)benzamide] | higher potency in PARP1-trapping
7 | CCN(CC)CCOc1cccc(C(=O)NC2C/C(=C\c3ccc(F)c(F)c3)C(=O)/C(=C/c3ccc(F)c(F)c3)C2)c1 (centres unmarked) [JCS099, N-(3,5-Bis((E)-3,4-difluorobenzylidene)-4-oxocyclohexyl)-3-(2-(diethylamino)ethoxy)benzamide] | higher potency in PARP1-trapping
8 | O=C1/C(=C/c2ccc(F)c(F)c2)CC(NC(=O)c2ccc(OCCN3CCCCC3)c(OCc3ccccc3)c2)C/C1=C\c1ccc(F)c(F)c1 (centres unmarked) [JCS102, 3-(Benzyloxy)-N-(3,5-bis((E)-3,4-difluorobenzylidene)-4-oxocyclohexyl)-4-(2-(piperidin-1-yl)eth-oxy)benzamide] | higher potency in PARP1-trapping
9 | CC(=O)c1cc(C(=O)NC2C/C(=C\c3ccc(F)c(F)c3)C(=O)/C(=C/c3ccc(F)c(F)c3)C2)ccc1OCCN1CCCCC1 (centres unmarked) [JCS103, 3-Acetyl-N-(3,5-bis((E)-3,4-difluorobenzylidene)-4-oxocyclohexyl)-4-(2-(piperidin-1-yl)ethoxy)-benzamide] | higher potency in PARP1-trapping
10 | CCN(CC)CCOc1ccc(C(=O)NC2C/C(=C\c3ccc(F)c(F)c3)C(=O)/C(=C/c3ccc(F)c(F)c3)C2)nc1 (centres unmarked) [JCS131, N-(3,5-Bis((E)-3,4-difluorobenzylidene)-4-oxocyclohexyl)-5-(2-(diethylamino)ethoxy)picolinamide] | higher potency in PARP1-trapping
11 | O=C1/C(=C/c2ccc(F)c(F)c2)CC(NC(=O)c2ccc(OCCN3CCN4CCCC4C3)cc2)C/C1=C\c1ccc(F)c(F)c1 (centres unmarked) [JCS135, N-(3,5-Bis((E)-3,4-difluorobenzylidene)-4-oxocyclohexyl)-4-(2-(hexahydropyrrolo[1,2-a]pyrazin-2(1H)-yl)ethoxy)benzamide] | higher potency in PARP1-trapping
12 | O=C1/C(=C/c2ccc(F)c(F)c2)CC(NC(=O)c2ccc(OCCN3CC4OCCOC4C3)cc2)C/C1=C\c1ccc(F)c(F)c1 (centres unmarked) [JCS137, N-(3,5-Bis((E)-3,4-difluorobenzylidene)-4-oxocyclohexyl)-4-(2-(hexahydro-6H-[1,4]dioxino[2,3-c]pyrrol-6-yl)ethoxy)benzamide] | their potencies were less than JC099

molecular target: T2, ATR (Homo sapiens, UniProt Q13535); test: ATR-mediated signaling: phosphorylation of Rad17 Ser 645 and CHK1 Ser 345 in cells; format: cell-based; settings: 1 μM and 2 μM; PC3 and MDA-MB-231 cells
T2 construct: endogenous in cells; host or cells: PC3, C4-2B/MR, SUM149PT-BRCA1rev, UWB1.289+BRCA1, MDA-MB-231
Description: PARP inhibitor-resistant cells are increasingly dependent on ATR for survival, and ATR inhibition disrupts restored HR and fork protection pathways in PARP inhibitor resistant BRCA-deficient cancer cells. For ATR kinase in vitro assays, ATR was immunoprecipitated with 3 μg of anti-ATR antibody (Bethyl Laboratories, A300-137A) from 1 mg of cell lysate. […] The IC50 was determined by the enzyme profiling service of Eurofins Cerep (France). […] The phosphorylation of CHK1 at Ser 345 sites was used as a bio-marker of ATR-mediated signaling pathway. The phosphorylation of Rad17 at Ser 645, which is a substrate of ATR, was also examined.
ATR inhibition was assessed in C4-2B/MR cells. Considering ATM is a homologous protein of ATR, we also detected the effect of JC046 analogs on the phosphorylation of KAP1 at Ser 824 and CHK2 at Thr 68 sites, which were used as markers of ATM signaling pathway.

T2 sequence (Q13535 whole entry): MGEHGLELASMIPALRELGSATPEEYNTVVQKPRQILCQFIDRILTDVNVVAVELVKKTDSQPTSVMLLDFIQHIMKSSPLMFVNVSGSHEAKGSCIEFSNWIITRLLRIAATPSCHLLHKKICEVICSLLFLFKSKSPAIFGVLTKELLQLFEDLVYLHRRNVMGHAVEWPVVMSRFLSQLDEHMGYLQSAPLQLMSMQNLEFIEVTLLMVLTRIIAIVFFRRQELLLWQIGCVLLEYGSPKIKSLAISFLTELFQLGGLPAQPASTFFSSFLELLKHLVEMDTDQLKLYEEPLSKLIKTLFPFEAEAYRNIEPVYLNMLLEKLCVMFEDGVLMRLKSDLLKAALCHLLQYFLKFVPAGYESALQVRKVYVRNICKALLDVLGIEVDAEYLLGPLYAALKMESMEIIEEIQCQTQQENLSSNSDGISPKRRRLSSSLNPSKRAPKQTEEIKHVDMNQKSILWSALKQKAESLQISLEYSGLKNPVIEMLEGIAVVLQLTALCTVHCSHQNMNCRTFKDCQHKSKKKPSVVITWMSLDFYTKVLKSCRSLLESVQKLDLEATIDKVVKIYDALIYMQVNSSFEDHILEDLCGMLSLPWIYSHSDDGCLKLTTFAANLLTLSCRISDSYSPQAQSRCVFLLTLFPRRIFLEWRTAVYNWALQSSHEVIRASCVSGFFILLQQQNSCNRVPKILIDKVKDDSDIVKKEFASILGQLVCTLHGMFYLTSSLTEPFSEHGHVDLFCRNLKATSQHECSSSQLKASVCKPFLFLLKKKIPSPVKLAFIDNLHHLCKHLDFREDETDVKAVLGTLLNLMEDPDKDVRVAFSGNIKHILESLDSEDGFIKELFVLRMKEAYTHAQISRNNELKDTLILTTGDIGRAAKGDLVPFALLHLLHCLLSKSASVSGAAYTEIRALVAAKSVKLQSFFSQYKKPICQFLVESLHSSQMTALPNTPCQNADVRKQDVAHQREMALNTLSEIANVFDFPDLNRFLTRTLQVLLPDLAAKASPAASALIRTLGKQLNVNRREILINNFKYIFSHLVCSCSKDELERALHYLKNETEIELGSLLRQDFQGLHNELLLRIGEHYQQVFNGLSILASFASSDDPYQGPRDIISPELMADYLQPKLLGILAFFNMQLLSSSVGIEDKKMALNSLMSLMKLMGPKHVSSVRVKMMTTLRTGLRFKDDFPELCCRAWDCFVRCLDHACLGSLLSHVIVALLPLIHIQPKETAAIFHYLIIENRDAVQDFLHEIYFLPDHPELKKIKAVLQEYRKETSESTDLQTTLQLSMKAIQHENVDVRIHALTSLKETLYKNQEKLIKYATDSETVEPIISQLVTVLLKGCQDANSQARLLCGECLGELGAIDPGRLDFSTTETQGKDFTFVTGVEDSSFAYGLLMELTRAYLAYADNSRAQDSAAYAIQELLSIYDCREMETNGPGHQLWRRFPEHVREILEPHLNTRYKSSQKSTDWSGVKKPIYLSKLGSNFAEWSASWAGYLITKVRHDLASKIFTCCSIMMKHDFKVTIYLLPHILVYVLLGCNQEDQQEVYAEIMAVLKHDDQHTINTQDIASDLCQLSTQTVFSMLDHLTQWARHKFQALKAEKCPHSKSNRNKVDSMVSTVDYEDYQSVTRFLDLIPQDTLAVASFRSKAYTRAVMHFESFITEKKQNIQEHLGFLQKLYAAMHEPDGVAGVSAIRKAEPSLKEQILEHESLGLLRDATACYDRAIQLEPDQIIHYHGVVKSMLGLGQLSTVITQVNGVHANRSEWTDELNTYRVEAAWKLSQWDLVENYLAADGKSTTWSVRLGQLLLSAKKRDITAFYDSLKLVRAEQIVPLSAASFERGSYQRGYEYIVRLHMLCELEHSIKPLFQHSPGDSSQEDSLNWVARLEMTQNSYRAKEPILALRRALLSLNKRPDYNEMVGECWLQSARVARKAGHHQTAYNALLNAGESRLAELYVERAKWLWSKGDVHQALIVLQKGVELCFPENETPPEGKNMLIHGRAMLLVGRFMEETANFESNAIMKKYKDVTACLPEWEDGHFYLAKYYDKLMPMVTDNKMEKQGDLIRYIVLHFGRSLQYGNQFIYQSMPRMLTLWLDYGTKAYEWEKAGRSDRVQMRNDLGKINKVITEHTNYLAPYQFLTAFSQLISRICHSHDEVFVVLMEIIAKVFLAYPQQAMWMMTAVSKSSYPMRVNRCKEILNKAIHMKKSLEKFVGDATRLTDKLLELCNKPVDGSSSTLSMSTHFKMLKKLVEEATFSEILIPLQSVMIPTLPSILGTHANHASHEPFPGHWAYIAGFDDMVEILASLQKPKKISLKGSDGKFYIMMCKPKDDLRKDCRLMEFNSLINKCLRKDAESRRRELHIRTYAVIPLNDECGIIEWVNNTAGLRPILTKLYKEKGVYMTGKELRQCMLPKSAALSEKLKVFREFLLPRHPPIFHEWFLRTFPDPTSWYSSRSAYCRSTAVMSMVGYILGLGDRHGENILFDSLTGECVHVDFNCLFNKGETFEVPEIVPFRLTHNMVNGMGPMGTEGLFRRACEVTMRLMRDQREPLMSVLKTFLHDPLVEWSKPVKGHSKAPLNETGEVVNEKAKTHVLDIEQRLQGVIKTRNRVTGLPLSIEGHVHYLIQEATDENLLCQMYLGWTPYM
T2 sequence (Q8WXE1 whole entry partner): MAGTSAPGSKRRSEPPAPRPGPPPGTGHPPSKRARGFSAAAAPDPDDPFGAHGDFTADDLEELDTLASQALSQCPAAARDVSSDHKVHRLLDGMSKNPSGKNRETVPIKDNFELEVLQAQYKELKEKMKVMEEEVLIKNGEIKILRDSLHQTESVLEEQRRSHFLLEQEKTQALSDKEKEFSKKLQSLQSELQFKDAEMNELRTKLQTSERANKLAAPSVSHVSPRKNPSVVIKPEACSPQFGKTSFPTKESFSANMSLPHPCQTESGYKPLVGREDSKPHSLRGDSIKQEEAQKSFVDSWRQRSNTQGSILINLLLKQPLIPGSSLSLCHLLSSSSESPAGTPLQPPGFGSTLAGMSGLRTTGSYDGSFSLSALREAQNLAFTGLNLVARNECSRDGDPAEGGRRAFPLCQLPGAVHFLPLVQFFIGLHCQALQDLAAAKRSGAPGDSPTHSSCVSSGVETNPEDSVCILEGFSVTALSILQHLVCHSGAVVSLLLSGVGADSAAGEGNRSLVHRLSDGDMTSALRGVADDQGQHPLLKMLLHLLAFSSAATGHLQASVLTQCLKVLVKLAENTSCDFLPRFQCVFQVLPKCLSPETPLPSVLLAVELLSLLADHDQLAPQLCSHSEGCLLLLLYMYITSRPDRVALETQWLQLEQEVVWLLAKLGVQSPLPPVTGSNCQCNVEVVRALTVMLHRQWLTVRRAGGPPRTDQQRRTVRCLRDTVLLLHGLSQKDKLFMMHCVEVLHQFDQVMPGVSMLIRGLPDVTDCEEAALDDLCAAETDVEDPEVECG

Row | SMILES | Olaparib induced phosphorylation of Rad17 at Ser 645 and CHK1 at Ser 345
13 | O=C(CCN1CCCC1)NC1C/C(=C\c2ccc(F)c(F)c2)C(=O)/C(=C/c2ccc(F)c(F)c2)C1 (centres unmarked) [JCS007, N-(3,5-bis((E)-3,4-difluorobenzylidene)-4-oxocyclohexyl)-3-(pyrrolidin-1-yl)propanamide] | inhibited

same assay, conditions: compared to JC099

Row | SMILES | ATR inhibition potency relative to JC099 (OLA- or UV-induced phosphorylation of Rad17 and CHK1)
14 | CCN1CCC[C@@H]1CNc1ccc(C(=O)NC2C/C(=C\c3ccc(F)c(F)c3)C(=O)/C(=C/c3ccc(F)c(F)c3)C2)cc1 (stereo partly drawn) [JCS066, N-(3,5-Bis((E)-3,4-difluorobenzylidene)-4-oxocyclohexyl)-4-((((R)-1-ethylpyrrolidin-2-yl)methyl)-amino)benzamide] | greater ATR inhibition potential
15 | N#Cc1cc(NCCN2CCCC2)ccc1C(=O)NC1C/C(=C\c2ccc(F)c(F)c2)C(=O)/C(=C/c2ccc(F)c(F)c2)C1 (centres unmarked) [JCS0091] | their potencies were close to JC099
16 | O=C1/C(=C/c2ccc(F)c(F)c2)CC(NC(=O)c2cnc(NCCN3CCCC3)c([N+](=O)[O-])c2)C/C1=C\c1ccc(F)c(F)c1 (centres unmarked) [JCS092, N-(3,5-Bis((E)-3,4-difluorobenzylidene)-4-oxocyclohexyl)-5-nitro-6-((2-(pyrrolidin-1-yl)ethyl)ami-no)nicotinamide] | their potencies were close to JC099
17 | O=C1/C(=C/c2ccc(F)c(F)c2)CC(NC(=O)c2cnc(NCCN3CCCC3)cn2)C/C1=C\c1ccc(F)c(F)c1 (centres unmarked) [JCS093, N-(3,5-Bis((E)-3,4-difluorobenzylidene)-4-oxocyclohexyl)-5-((2-(pyrrolidin-1-yl)ethyl)amino)pyr-azine-2-carboxamide] | less ATR inhibition potencies
18 | CCN(CC)CCOc1ccc(-c2ccc(C(=O)NC3C/C(=C\c4ccc(F)c(F)c4)C(=O)/C(=C/c4ccc(F)c(F)c4)C3)cc2)cc1 (centres unmarked) [JCS095, N-(3,5-Bis((E)-3,4-difluorobenzylidene)-4-oxocyclohexyl)-4′-(2-(diethylamino)ethoxy)-[1,1′-biphenyl]-4-carboxamide] | less ATR inhibition potencies
19 | O=C1/C(=C/c2ccc(F)c(F)c2)CC(NC(=O)c2ccc3cc(OCCN4CCCCC4)ccc3c2)C/C1=C\c1ccc(F)c(F)c1 (centres unmarked) [JCS097, N-(3,5-Bis((E)-3,4-difluorobenzylidene)-4-oxocyclohexyl)-6-(2-(piperidin-1-yl)ethoxy)-2-naphth-amide] | less ATR inhibition potencies
20 | CCN(CC)CCOc1ccc2cc(C(=O)NC3C/C(=C\c4ccc(F)c(F)c4)C(=O)/C(=C/c4ccc(F)c(F)c4)C3)ccc2c1 (centres unmarked) [JCS098, N-(3,5-Bis((E)-3,4-difluorobenzylidene)-4-oxocyclohexyl)-6-(2-(diethylamino)ethoxy)-2-naphtha-mide] | less ATR inhibition potencies
21 | CCN(CC)CCOc1ccc(C(=O)NC2C/C(=C\c3ccc(F)c(F)c3)C(=O)/C(=C/c3ccc(F)c(F)c3)C2)cc1C(C)=O (centres unmarked) [JCS104, 3-Acetyl-N-(3,5-bis((E)-3,4-difluorobenzylidene)-4-oxocyclohexyl)-4-(2-(diethylamino)ethoxy)-benzamide] | less ATR inhibition potencies
22 | CCN(CC)CCOc1ccc(C(=O)NC2C/C(=C\c3ccc(F)c(F)c3)C(=O)/C(=C/c3ccc(F)c(F)c3)C2)c(C)c1 (centres unmarked) [JCS112, N-(3,5-Bis((E)-3,4-difluorobenzylidene)-4-oxocyclohexyl)-4-(2-(diethylamino)ethoxy)-2-methyl-benzamide] | less ATR inhibition potencies
23 | CCN(CC)CCOc1ccc(C(=O)NC2C/C(=C\c3ccc(F)c(F)c3)C(=O)/C(=C/c3ccc(F)c(F)c3)C2)cn1 (centres unmarked) [JCS115, N-(3,5-Bis((E)-3,4-difluorobenzylidene)-4-oxocyclohexyl)-6-(2-(diethylamino)ethoxy)nicotinamide] | less ATR inhibition potencies
